Measured values taken from ChEMBL document CHEMBL4765331, “Amides of pyrrole- and thiophene-fused anthraquinone derivatives: A role of the heterocyclic core in antitumor properties” (Eur J Med Chem, 2020).
pIC50: −log10 of the molar value. Calls of active or inactive are those of the source. No cut-off for these calls is given here.

What was measured:
[1] = Drug uptake in mouse NIH3T3 cells assessed as compound localization in mitochondria at 1 uM measured after 15 mins by Mitotracker Green FM dye based laser scanning microscope; assay type: ADME; conditions: nih3t3, 0.25 h
Calf thymus DNA [2] = test: Binding affinity to calf thymus double stranded DNA at 10 uM measured after 5 mins by flourescence spectroscopy method; conditions: Bos taurus
K562 [3] = test: Induction of apoptosis in human K562 cells assessed as late apoptotic cells at 1.6 uM measured after 24 hrs by Annexin V-APC/PI staining based flow cytometry assay (reference value: […]); assay type: functional
CAPAN-1 = test: Antiproliferative activity against human CAPAN-1 cells assessed as inhibition of cell proliferation measured after 72 hrs by MTT assay; assay type: functional, cell-based; conditions: CAPAN-1, 72 h
P388 [4] = test: Antitumour activity against mouse P388 cells xenografted subcutaneously in BDF1 mouse assessed as inhibition of tumour growth at 20 mg/kg, ip administered qd for 5 days starting from day 1 of tumor cell inoculation and measured at day 18 post-tumor cell inoculation; assay type: functional; conditions: P388, 432 h, time 18 day, read-out: TGI
K562 [5] = test: Induction of cell cycle arrest in human K562 cells assessed as accumulation at subG1 phase at 2XIC50 measured after 24 hrs by propidium iodide/RNase staining based flow cytometry; assay type: functional
[6] = Selectivity index, ratio of IC50 for human TERT-RPE1 cells to IC50 for human NCI-H460 cells; assay type: toxicity; conditions: TERT-RPE1 cells and NCI-H460 cells, read-out: Ratio IC50
[7] = Selectivity index, ratio of IC50 for human TERT-RPE1 cells to IC50 for human CAPAN-1 cells
[8] = Drug uptake in human K562i/S9 cells harboring exogenously expressed MDR1/Pgp; assay type: ADME, cell-based
K562 [9] = test: Induction of apoptosis in human K562 cells assessed as necrotic cells at 1.6 uM measured after 24 hrs by Annexin V-APC/PI staining based flow cytometry assay (reference value: 3.9%); assay type: functional
K562 [10] = test: Induction of apoptosis in human K562 cells assessed as late apoptotic cells at 1.6 uM measured after 48 hrs by Annexin V-APC/PI staining based flow cytometry assay (reference value: […]); assay type: functional
[11] = molecular target: T1, DNA topoisomerase 1 (Homo sapiens) (UniProt P11387); test: Inhibition of human topoisomerase 1-mediated relaxation of supercoiled plasmid using pBR322 plasmid as substrate at 40 uM measured after 30 mins by ethidium bromide dye based agarose gel electrophoresis method
T1 sequence (whole entry): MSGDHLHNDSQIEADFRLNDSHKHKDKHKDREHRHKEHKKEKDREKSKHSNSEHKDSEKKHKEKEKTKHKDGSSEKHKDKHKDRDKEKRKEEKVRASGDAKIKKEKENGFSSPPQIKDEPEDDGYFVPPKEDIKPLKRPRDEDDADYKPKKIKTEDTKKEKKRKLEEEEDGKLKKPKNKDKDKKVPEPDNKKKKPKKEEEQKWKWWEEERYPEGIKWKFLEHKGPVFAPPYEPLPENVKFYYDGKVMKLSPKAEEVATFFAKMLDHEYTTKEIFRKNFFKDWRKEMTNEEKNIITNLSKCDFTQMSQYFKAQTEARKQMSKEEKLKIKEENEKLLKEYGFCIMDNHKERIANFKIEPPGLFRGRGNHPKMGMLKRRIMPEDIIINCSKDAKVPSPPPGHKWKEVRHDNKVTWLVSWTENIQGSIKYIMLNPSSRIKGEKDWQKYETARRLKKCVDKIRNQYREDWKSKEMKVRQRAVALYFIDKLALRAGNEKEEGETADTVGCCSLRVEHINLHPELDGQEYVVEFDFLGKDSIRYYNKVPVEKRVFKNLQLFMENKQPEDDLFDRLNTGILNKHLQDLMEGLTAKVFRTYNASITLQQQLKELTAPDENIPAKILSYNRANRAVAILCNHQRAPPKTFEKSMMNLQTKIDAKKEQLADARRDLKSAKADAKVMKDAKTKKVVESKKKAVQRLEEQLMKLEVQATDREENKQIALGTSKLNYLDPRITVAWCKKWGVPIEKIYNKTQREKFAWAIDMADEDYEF

K562 [12] = test: Induction of apoptosis in human K562 cells assessed as viable cells at 1.6 uM measured after 48 hrs by Annexin V-APC/PI staining based flow cytometry assay (reference value: 85.9%); assay type: functional; conditions: read-out: Activity
P388 [13] = test: Antitumour activity against mouse P388 cells xenografted subcutaneously in BDF1 mouse assessed as inhibition of tumour growth at 60 mg/kg, ip administered qd for 5 days starting from day 1 of tumor cell inoculation and measured at day 18 post-tumor cell inoculation; assay type: functional; conditions: P388, 432 h, time 18 day, read-out: TGI
K562 [14] = test: Antiproliferative activity against human K562 cells assessed as inhibition of cell proliferation measured after 72 hrs by MTT assay; assay type: functional, cell-based; conditions: K562, 72 h
Calf thymus DNA [15] = test: Binding affinity to calf thymus DNA assessed as binding constant by scatchard plot analysis; conditions: Bos taurus
[16] = Antiproliferative activity against P-gp-positive/doxorubicin-resistant human K562/4 cells assessed as inhibition of cell proliferation measured after 72 hrs by MTT assay; assay type: functional; conditions: K562/4, 72 h
[17] = Selectivity index, ratio of IC50 for human TERT-RPE1 cells to IC50 for human HL-60 cells; assay type: toxicity; conditions: TERT-RPE1 cells and HL-60 cells, read-out: Ratio IC50
K562 [18] = test: Induction of oxidative stress in human K562 cells assessed as increase in intracellular ROS generation at 1.6 uM measured after 40 mins by Deep Red dye based flow cytometry method; assay type: functional, cell-based
K562 [19] = test: Induction of cell cycle arrest in human K562 cells assessed as accumulation at G2/M phase at 2XIC50 measured after 24 hrs by propidium iodide/RNase staining based flow cytometry; assay type: functional
[20] = Selectivity index, ratio of IC50 for human TERT-RPE1 cells to IC50 for human HCT-116 cells; assay type: toxicity; conditions: TERT-RPE1 cells and HCT-116 cells, read-out: Ratio IC50
Calf thymus DNA [21] = test: Binding affinity to calf thymus DNA assessed as stoichiometry ratio of compound-DNA complex formation by scatchard plot analysis; conditions: Bos taurus
K562 [22] = test: Induction of cell cycle arrest in human K562 cells assessed as accumulation at G2/M phase at 2XIC50 measured after 48 hrs by propidium iodide/RNase staining based flow cytometry; assay type: functional
K562 [23] = test: Induction of apoptosis in human K562 cells assessed as necrotic cells at 1.6 uM measured after 48 hrs by Annexin V-APC/PI staining based flow cytometry assay (reference value: 3.9%); assay type: functional
[24] = Resistance index, ratio of IC50 for human P-gp-positive/Doxorubicin-resistant K562/4 cells to IC50 for human K562 cells; assay type: functional
K562 [25] = test: Induction of apoptosis in human K562 cells assessed as viable cells at 1.6 uM measured after 24 hrs by Annexin V-APC/PI staining based flow cytometry assay (reference value: 85.9%); assay type: functional; conditions: read-out: Activity
TERT-RPE1 = test: Cytotoxicity against human TERT-RPE1 cells assessed as inhibition of cell proliferation measured after 72 hrs by MTT assay; assay type: cell-based; conditions: RPE-1, 72 h
K562 [26] = test: Induction of apoptosis in human K562 cells assessed as early apoptotic cells at 1.6 uM measured after 24 hrs by Annexin V-APC/PI staining based flow cytometry assay (reference value: 3.4%); assay type: functional

## Cc1[nH]c2c(O)c3c(c(O)c2c1C(=O)N1CC[C@H](N)C1)C(=O)c1ccccc1C3=O
[1]
  Drug uptake: Active
Calf thymus DNA [2]
  Activity: Active
K562 [3]
  Activity: 8.3%
CAPAN-1
  pIC50: 6.30
P388 [4]
  inhibition in vivo at 20 mg/kg: 65%
K562 [5]
  Activity: Active
[6]
  selectivity ratio: 18
[7]
  Ratio IC50: 18
[8]
  Drug uptake: Active
K562 [9]
  Activity: 21%
K562 [10]
  Activity: 7.5%
[11]
  inhibition: Active
K562 [12]
  viability at 1.6 µM: 56.6%
P388 [13]
  inhibition in vivo at 60 mg/kg: 79%
K562 [14]
  pIC50: 6.10
Calf thymus DNA [15]
  Kb: 14 10^5/M
[16]
  pIC50: 4.67
[17]
  selectivity ratio: 18
K562 [18]
  Activity: inactive
K562 [19]
  Activity: Active
[20]
  selectivity ratio: 18
Calf thymus DNA [21]
  Ratio: 4.6
K562 [22]
  Activity: Active
K562 [23]
  Activity: 34.8%
[24]
  Ratio IC50: 26.5
K562 [25]
  viability at 1.6 µM: 69.4%
TERT-RPE1
  pIC50: 4.80
K562 [26]
  Activity: 1.3%
